Results published in PMC8416056, “Aspulvinones Suppress Postprandial Hyperglycemia as Potent α-Glucosidase Inhibitors From Aspergillus terreus ASM-1” (Frontiers in Chemistry, 2021).
Where two headings read alike, the source gives them in different places.

Assays:
female C57BL/6J mice [1] = experiment: Oral sucrose tolerance test; assay type: in vivo; settings: sucrose 2 g/kg BW; for decrease of the AUC (blood glucose, 0–120 min): versus negative control
Method: (§1) Female C57BL/6J mice, 6 weeks old, weighting 16–20 g, were obtained from the Skbex Biotechenology Company Limited (Henan, China). The animals were housed in Experimental Animal Center of Zhoukou Normal University under 12 h light-dark cycle at controlled temperature (22 ± 1°C), and provided with a standard pellet diet and water ad libitum. The mice were adapted to diet and general conditions of vivarium for 1 week before the experiment. After an 16 h fasting, the mice were divided into three groups randomly (eight mice each group). […] Mice were fasted 16 h and then intragastrically (i.g.) administrated the inhibitors, 15 min later, 2 g/kg BW of sucrose or 2 g/kg BW of maltose solution was given i.g. to the animals. Blood samples were taken from the tail vein at 0, 30, 60, and 120 min after sucrose or maltose loading, and blood glucose was measured with Accu-Chek Active glucometer (Roche, Germany). Area under the curve (AUC) over 0–120 min was calculated by the trapezoidal method. All animals were cared under the frame of the China Council on Animal Care and all procedures were approved by the Health Sciences Animal Welfare Committee of Zhoukou Normal University.

α-glucosidase [2] = molecular target: T1, α-glucosidase (Saccharomyces cerevisiae, UniProt P53341); experiment: Fluorescence quenching analysis; assay type: binding; settings: for Ksv: quenching constant; for Kq: quenching rate constant, same cell as Ksv; for ∆S: van't Hoff, from 20, 31 and 37 °C (one value per inhibitor, repeated in the grid)
T1 construct: purchased
T1 sequence (P53341 whole entry): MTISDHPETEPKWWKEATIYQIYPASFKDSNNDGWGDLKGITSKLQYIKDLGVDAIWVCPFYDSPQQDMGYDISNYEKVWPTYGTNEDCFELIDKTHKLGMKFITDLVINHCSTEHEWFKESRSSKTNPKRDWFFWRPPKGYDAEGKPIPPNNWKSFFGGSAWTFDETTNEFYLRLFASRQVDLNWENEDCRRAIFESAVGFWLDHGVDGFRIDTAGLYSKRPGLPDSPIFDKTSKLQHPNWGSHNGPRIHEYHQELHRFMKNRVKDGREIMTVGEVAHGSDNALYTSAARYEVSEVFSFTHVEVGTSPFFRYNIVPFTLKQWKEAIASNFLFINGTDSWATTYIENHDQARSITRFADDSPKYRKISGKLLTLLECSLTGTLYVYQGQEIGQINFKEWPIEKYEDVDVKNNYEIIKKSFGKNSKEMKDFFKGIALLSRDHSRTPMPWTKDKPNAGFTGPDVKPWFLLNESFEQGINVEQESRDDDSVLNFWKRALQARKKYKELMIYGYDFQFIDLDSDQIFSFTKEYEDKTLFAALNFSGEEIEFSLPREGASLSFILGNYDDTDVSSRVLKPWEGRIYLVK
Method: α-Glucosidase (1 μM) was mixed with different concentrations of inhibitors (0–15 μM) at 20, 31, and 37°C, respectively, and the fluorescence spectra of mixed solutions were determined after equilibration for 5 min at an excitation wavelength of 250 nm. Both the excitation and emission slits were set at 10 nm. The quenching rate constant (Kq), binding constant (Ka), the number of the binding sites (n), and thermodynamic parameters enthalpy change (ΔH) and entropy change (ΔS) were calculated according to the Stern-Volmer Eq. 2 and the van’t Hoff Eqs 3–5, which were listed as follows ([Xu et al., 2019]): F0/F = 1 + Ksv[Q] = 1 + Kqτ0[Q] (2) log((F0-F)/F) = logKa+ nlogQ (3) lnKa= (-1/T(ΔH/R)) + ΔS/R (4) ΔG = ΔH-TΔS (5) Where F0 and F represent the fluorescence intensities in the absence or presence of inhibitor, [Q] denote the concentration of inhibitor, τ0 is the constant of the lifetime of fluorophore (10^–8 s) and R is the gas constant of 8.31 J/(mol × K).

[3] = molecular target: T2, α-Glucosidase (EC:3.2.1.20, MAL12) (Saccharomyces cerevisiae, UniProt P53341); experiment: biochemical
T2 construct: purchased
T2 sequence (P53341 whole entry): as above
Method: α-Glucosidase (EC:3.2.1.20, MAL12) from Saccharomyces cerevisiae was dissolved in 0.1 mol/L PBS solutions with a pH of 6.8, and diluted to be a 1.0 U/ml solution. The substrate p-nitrophenyl-[…] (pNPG) was dissolved in PBS to be a 1 mM solution. […] The absorbance of p-nitrophenol was monitored at 405 nm. […] The negative control was performed by adding PBS instead of α-glucosidase, the blank was prepared by adding solvent without tested compounds. The inhibition rate was calculated as Eq. 1: IR% =[(Ac-As)/Ac] × 100% (1) where Ac represents the absorbance of control without sample solution, and As denotes the absorbance of sample.

α-glucosidase [4] = molecular target: T1, α-glucosidase; experiment: Circular dichroism spectroscopy of α-glucosidase with inhibitor; assay type: binding; design: dose or concentration left out as unconfirmed; settings: after the addition of (molar ratios 20:1 and 40:1), 20°C
Method: The CD measurements were performed in a wavelength range of 190–250 nm at a speed of 60 nm/min. All measurements were carried out at 20°C using 1.0 mm path length quartz cuvette and sodium phosphate buffer (pH 6.8) was considered as a blank. […] All the results were expressed as ellipticity in mill degrees.

α-glucosidase [5] = molecular target: T1, α-glucosidase; experiment: Enzymatic kinetics of α-glucosidase (Lineweaver–Burk, Dixon and secondary plots); assay type: biochemical; settings: for Inhibition mode: Lineweaver–Burk plots; for KIS: inhibitor binding with enzyme-substrate complex, vertical intercept (1/Vm) versus inhibitor concentration
Method: pNPG with a concentration range of 100–4,000 μM and α-glucosidase were incubated with different concentrations of inhibitor for 10 min, respectively. 20 μl of 1.0 U/ml enzyme solutions were first mixed with 10 μl of different concentrations of inhibitors, then 50 μl PBS solutions were added, and the mixed solutions were incubated at 37°C for 10 min. Subsequently, 20 μl of pNPG solutions (1.25, 2.5, 5, 10 and 20 mM) were added, and the mixed solutions were further incubated at 37°C for 25 min, the absorbance of reaction solution was measured at 405 nm every 3 min. The kinetic parameters, Michaelis–Menten (Km) and maximum velocity (Vmax), were found using Lineweaver–Burk plots to check the mode of α-glucosidase inhibition for compounds 1 and 4. The dissociation constants between inhibitor and enzyme (Ki) were calculated from Dixon plots. Two inhibition constants, KI or KIS, for inhibitor binding with either free or enzyme-substrate complex, were calculated from secondary plots of the slopes of the straight lines ([…]) or vertical intercept (1/Vmax) verse the concentration of inhibitors, respectively ([Jenis et al., 2019]).

female C57BL/6J mice [6] = settings: 25 mg/kg BW i.g.
Method: as §1, with “Area under the curve (AUC) over 0–120 min was calculated by the trapezoidal method.” left out

α-glucosidase [7] = settings: ref Dewi et al., 2014; cited from earlier work
[8] = sample concentration which led to 50% enzyme activity loss, pNPG substrate, pH 6.8, 37°C, read-out: IC50
[9] = inhibition constant, from Dixon plots
[10] = inhibitor binding with free enzyme, slope (Km/Vm) versus inhibitor concentration

SMILES: C[C@H]1O[C@H](O[C@H]2[C@H](O)[C@@H](O)[C@@H](O[C@H]3[C@H](O)[C@@H](O)C(O)O[C@@H]3CO)O[C@@H]2CO)[C@H](O)[C@@H](O)[C@@H]1N[C@H]1C=C(CO)[C@@H](O)[C@H](O)[C@H]1O (stereo partly shown) [Acarbose, reference compound]
- decrease of the AUC (blood glucose, 0–120 min) (female C57BL/6J mice [1]; 50 mg/kg BW i.g.): 11.8%

SMILES: CC(C)=CCc1cc(/C=C2\OC(=O)C(c3cc4c(c(CC=C(C)C)c3)OC(C)(C)C=C4)=C2O)ccc1O [Compound 1, Aspulvinone V]
- ∆G (α-glucosidase [2]; 31 °C): -3.32 kcal/mol
- ∆G (α-glucosidase [2]; 37 °C): -2.94 kcal/mol
- binding constants (Ka), order of magnitude (α-glucosidase [2]; at the three temperatures): ~10^5 L/mol
- Kd (α-glucosidase [2]; binding constant, 20 °C, read-out: Ka (converted)): 9.09 µM
- Kd (α-glucosidase [2]; binding constant, 31 °C, read-out: Ka (converted)): 3.27 µM
- Kd (α-glucosidase [2]; binding constant, 37 °C, read-out: Ka (converted)): 1.79 µM
- Ksv (α-glucosidase [2]; 20 °C): 53500 L/mol
- Ksv (α-glucosidase [2]; 31 °C): 78700 L/mol
- Ksv (α-glucosidase [2]; 37 °C): 58100 L/mol
- Kq (α-glucosidase [2]; 20 °C): 5.35e+12 M⁻¹ s⁻¹
- Kq (α-glucosidase [2]; 31 °C): 7.87e+12 M⁻¹ s⁻¹
- Kq (α-glucosidase [2]; 37 °C): 5.81e+12 M⁻¹ s⁻¹
- ∆S (α-glucosidase [2]): 148.2 J/mol/K
- IC50 [3, 8]: 2.2 ± 0.4 µM
- change of α-glucosidase CD spectrum (negative peaks at 209 and 222 nm) (α-glucosidase [4]): loss of the α-helix structure
- Inhibition mode (α-glucosidase [5]): mixed-type
- Ki (α-glucosidase [5]; [9]): 6.6 µM
- KIS (α-glucosidase [5]): 8.23 µM
- Ki (α-glucosidase [5]; [10]): 3.15 µM

SMILES: CC(C)=CCc1cc(/C=C2\OC(=O)C(c3cc(CC=C(C)C)c(O)c(CC=C(C)C)c3)=C2O)ccc1O [Compound 6, aspulvinone R]
- IC50 [3]: 10.8 ± 2.3 µM

SMILES: CC(C)=CCc1cc(/C=C2\OC(=O)C(c3ccc(O)c(CC=C(C)C)c3)=C2O)ccc1O [Compound 4, aspulvinone H]
- ∆G (α-glucosidase [2]; 31 °C): -2.99 kcal/mol
- ∆G (α-glucosidase [2]; 37 °C): -2.37 kcal/mol
- Kd (α-glucosidase [2]; Ka, binding constant, 20 °C): 34.5 µM
- Kd (α-glucosidase [2]; Ka, binding constant, 31 °C): 12.7 µM
- Kd (α-glucosidase [2]; Ka, binding constant, 37 °C): 4.31 µM
- Kd (α-glucosidase [2]; binding constants (Ka), order of magnitude, at the three temperatures): ~100 µM
- Ksv (α-glucosidase [2]; 20 °C): 56900 L/mol
- Ksv (α-glucosidase [2]; 31 °C): 55300 L/mol
- Ksv (α-glucosidase [2]; 37 °C): 60200 L/mol
- Kq (α-glucosidase [2]; 20 °C): 5.69e+12 M⁻¹ s⁻¹
- Kq (α-glucosidase [2]; 31 °C): 5.53e+12 M⁻¹ s⁻¹
- Kq (α-glucosidase [2]; 37 °C): 6.02e+12 M⁻¹ s⁻¹
- ∆S (α-glucosidase [2]): 240.1 J/mol/K
- IC50 [3, 8]: 4.6 ± 1.3 µM
- change of α-glucosidase CD spectrum (negative peaks at 209 and 222 nm) (α-glucosidase [4]): loss of the α-helix structure
- postprandial blood glucose peak (female C57BL/6J mice [6]; Figure 6C (maltose), versus the negative control group): significant decrease
- reduction of the AUC for postprandial plasma glucose in 2 h (female C57BL/6J mice [6]; Figure 6D (maltose 2 g/kg BW), text prints 'sucrose tolerance test'): 19.7%
- blood glucose rise at 30 and 60 min (female C57BL/6J mice [1]; 25 mg/kg BW i.g., compared to negative control group): significantly suppressed
- decrease of the AUC (blood glucose, 0–120 min) (female C57BL/6J mice [1]; 25 mg/kg BW i.g.): 13.2%
- Inhibition mode (α-glucosidase [5]): mixed-type
- Ki (α-glucosidase [5]; [9]): 6.58 µM
- KIS (α-glucosidase [5]): 6.62 µM
- Ki (α-glucosidase [5]; [10]): 4.7 µM

SMILES: CC(C)=CCc1cc(C2=C(O)C(=Cc3ccc4c(c3)CC(C(C)(C)O)O4)OC2=O)ccc1O (stereo not shown) [Compound 2, Aspulvinone W]
- IC50 [3]: 32 ± 5.8 µM

SMILES: O=C1O/C(=C/c2ccc(O)cc2)C(O)=C1c1ccc(O)cc1 [isoaspulvinone E]
- IC50 (α-glucosidase [7]): 8.92 µM

SMILES: CC1(C)CCc2cc(C3=C(O)C(=Cc4ccc5c(c4)CC(C(C)(C)O)O5)OC3=O)ccc2O1 (stereo not shown) [Compound 3, Aspulvinone X]
- IC50 [3]: 38.6 ± 5.2 µM

SMILES: O=C1O/C(=C\c2ccc(O)cc2)C(O)=C1c1ccc(O)cc1 [Aspulvinone E]
- IC50 (α-glucosidase [7]): 2.7 µM

SMILES: CC(C)(O)[C@H]1Cc2cc(/C=C3\OC(=O)C(c4ccc5c(c4)C[C@H](C(C)(C)O)O5)=C3O)ccc2O1 [Compound 5, aspulvinone J-CR]
- IC50 [3]: 44.3 ± 8.9 µM
